According to PubChem BioAssay AID328 (DTP/NCI, 2004):
Values joined by “and” are separate entries in the source; they are usually repeats but may differ in a detail not shown here. Equal values may be shown once. Toxic doses and inconclusive results are not listed. How the source made its calls: active means survival T/C of 150% or more; inactive means T/C below 125% in these data.

Tested on: BDF1 mice, P388 leukemia ip, median survival T/C
Test: NCI In Vivo Anticancer Drug Screen. Data for tumor model P388 Leukemia (intraperitoneal) in B6D2F1 (BDF1) mice
Details: endpoint: median survival time, higher = longer survival
Outline: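 Reported as T/C, where T is the survival measurement in dosed animals and C the same measurement in vehicle controls.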

[1] = dose: 50.0 mg/kg/injection, schedule: Q01DX009 (ip), vehicle: saline with Tween-80
[2] = dose: 100.0 mg/kg/injection, schedule: Q01DX009 (ip), vehicle: saline with Tween-80
[3] = dose: 100.0 mg/kg/injection, schedule: Q04DX003 (ip), vehicle: Klucel (hydroxypropylcellulose) (HPC)
[4] = dose: 200.0 mg/kg/injection, schedule: Q01DX009 (ip), vehicle: saline with Tween-80
[5] = dose: 200.0 mg/kg/injection, schedule: Q04DX003 (ip), vehicle: Klucel (hydroxypropylcellulose) (HPC)
[6] = dose: 400.0 mg/kg/injection, schedule: Q04DX003 (ip), vehicle: Klucel (hydroxypropylcellulose) (HPC)
[7] = dose: 25.0 mg/kg/injection, schedule: Q01DX009 (ip), vehicle: saline with Tween-80

Measured: T/C

COc1cc2c(cc1OC)/C(=N\O)CCCC2
inactive: [1] 119 % of control | [2] 114 % of control | [3] 100 % of control | [4] 90 % of control | [5] 100 % of control | [6] 100 % of control

COC(=O)C1C2CC[N+]3(CCCCC13)O2 (stereo unspecified)
inactive: dose: 3.13 mg/kg/injection, schedule: Q01DX009 (ip), vehicle: saline 100 % of control | dose: 6.25 mg/kg/injection, schedule: Q01DX009 (ip), vehicle: saline 100 % of control | dose: 12.5 mg/kg/injection, schedule: Q01DX009 (ip), vehicle: saline 93 % of control and 109 % of control | dose: 50.0 mg/kg/injection, schedule: Q01DX009 (ip), vehicle: saline 105 % of control

c1ccc(CN(CCNc2ccccc2)c2ccccc2)cc1
inactive: dose: 0.78 mg/kg/injection, schedule: Q01DX009 (ip), vehicle: water 106 % of control | dose: 1.56 mg/kg/injection, schedule: Q01DX009 (ip), vehicle: water 104 % of control | dose: 3.12 mg/kg/injection, schedule: Q01DX009 (ip), vehicle: water 108 % of control | dose: 6.25 mg/kg/injection, schedule: Q01DX009 (ip), vehicle: water 104 % of control | dose: 12.5 mg/kg/injection, schedule: Q01DX009 (ip), vehicle: water 106 % of control | dose: 25.0 mg/kg/injection, schedule: Q01DX009 (ip), vehicle: water 92 % of control | dose: 50.0 mg/kg/injection, schedule: Q01DX009 (ip), vehicle: water 92 % of control | dose: 50.0 mg/kg/injection, schedule: Q04DX003 (ip), vehicle: water 100 % of control | dose: 100.0 mg/kg/injection, schedule: Q01DX009 (ip), vehicle: water 115 % of control | dose: 100.0 mg/kg/injection, schedule: Q04DX003 (ip), vehicle: water 98 % of control | dose: 200.0 mg/kg/injection, schedule: Q01DX009 (ip), vehicle: water 97 % of control | dose: 200.0 mg/kg/injection, schedule: Q04DX003 (ip), vehicle: water 103 % of control

Cc1cccc(-n2c(CC#N)n[nH]c2=S)c1
inactive: [1] 96 % of control | [4] 100 % of control

C(=Nc1ccc2c(c1)Cc1ccccc1-2)c1ccc2ccccc2c1
inactive: dose: 12.5 mg/kg/injection, schedule: Q04DX002 (ip), vehicle: saline with Tween-80 103 % of control | dose: 25.0 mg/kg/injection, schedule: Q04DX002 (ip), vehicle: saline with Tween-80 94 % of control | dose: 50.0 mg/kg/injection, schedule: Q04DX002 (ip), vehicle: saline with Tween-80 97 % of control

Cc1cccc2nc(Oc3ccccc3)nc(=O)n12
inactive: [1] 96 % of control | [2] 99 % of control

CC(C)=CCCC(C)=C(C(=O)O)C(=O)O
inactive: [3] 113 % of control | [5] 111 % of control | [6] 110 % of control

O=C1CCCCCCC1Cc1cc(O)c(CC2CCCCCCC2=O)cc1O (stereo unspecified)
inactive: [1] 90 % of control | [2] 91 % of control | [4] 86 % of control

O=[N+]([O-])c1ccc(S(=O)(=O)OCc2ccccc2OS(=O)(=O)c2ccc([N+](=O)[O-])cc2)cc1
inactive: [7] 109 % of control | dose: 25.0 mg/kg/injection, schedule: Q04DX003 (ip), vehicle: Klucel (hydroxypropylcellulose) (HPC) 110 % of control | [1] 114 % of control | dose: 50.0 mg/kg/injection, schedule: Q04DX003 (ip), vehicle: Klucel (hydroxypropylcellulose) (HPC) 100 % of control | [2] 114 % of control | [3] 95 % of control

CC(C(O)c1ccc(Br)cc1)C(O)(C(F)(F)F)C(F)(F)F (stereo unspecified)
inactive: dose: 100.0 mg/kg/injection, schedule: Q04DX003 (ip), vehicle: other 100 % of control | dose: 200.0 mg/kg/injection, schedule: Q04DX003 (ip), vehicle: other 100 % of control | dose: 400.0 mg/kg/injection, schedule: Q04DX003 (ip), vehicle: other 100 % of control

COc1cccc(S(=O)(=O)c2ccc([N+](=O)[O-])c3nonc23)c1
inactive: dose: 12.5 mg/kg/injection, schedule: Q01DX009 (ip), vehicle: saline with Tween-80 111 % of control | [7] 111 % of control
